# Assay results published in ChEMBL document CHEMBL1909046, “DrugMatrix in vitro pharmacology data”.
# Where a SMILES comes first, the peptide text is derived from it. Bridges are numbered along the chain shown (N, C = ends). [ ]: non-standard residue; d: D form. The star is where a group is joined. Threoninol(2S,3R) = C[C@@H](O)[C@H](CO)N*
# How the values were obtained:
# [1] = target: 5-hydroxytryptamine receptor 2B (Homo sapiens, UniProt P41595); type: cell membranes, CHO-K1, Membrane; note: in other assays of this panel Not Active means under 50% inhibition at 10 µM
# [2] = target: C-C chemokine receptor type 2 (Homo sapiens, UniProt P41597); type: cell membranes, CHO-K1, Membrane; note: in other assays of this panel Not Active means under 50% inhibition at 10 µM
# [3] = target: D(1A) dopamine receptor (Homo sapiens, UniProt P21728); assay: DRUGMATRIX: Dopamine D1 radioligand binding (ligand: [3H] SCH-23390); type: cell membranes, Membrane; conditions: cho; Not Active = under 50% inhibition at 10 µM
# [4] = target: Mu-type opioid receptor (Homo sapiens, UniProt P35372); assay: DRUGMATRIX: Opiate mu (OP3, MOP) radioligand binding (ligand: [3H] Diprenorphine); type: cell membranes, CHO-K1, Membrane; conditions: Not Active = under 50% inhibition at 10 µM
# [5] = DRUGMATRIX: Phosphodiesterase PDE4 enzyme inhibition (substrate: [3H]cAMP + cAMP); conditions: u-937; Not Active = under 50% inhibition at 10 µM
# [6] = target: T1, Adenosine receptor A1 (Homo sapiens, UniProt P30542); type: cell membranes, Membrane; conditions: cho;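 note: radioligand binding assay at the adenosine A1 receptor, with DPCPX serving as the labelled ligand; in other assays of this panel Not Active means under 50% inhibition at 10 µM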
# T1 sequence (P30542 whole entry): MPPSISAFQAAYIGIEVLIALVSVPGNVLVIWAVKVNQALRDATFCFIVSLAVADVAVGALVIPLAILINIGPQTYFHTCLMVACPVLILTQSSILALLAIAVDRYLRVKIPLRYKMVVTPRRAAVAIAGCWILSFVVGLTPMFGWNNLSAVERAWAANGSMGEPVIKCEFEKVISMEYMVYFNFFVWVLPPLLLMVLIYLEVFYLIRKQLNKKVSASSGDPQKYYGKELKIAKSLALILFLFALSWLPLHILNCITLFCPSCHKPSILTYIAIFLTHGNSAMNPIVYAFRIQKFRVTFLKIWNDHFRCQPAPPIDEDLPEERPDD
# [7] = target: Cytochrome P450 2D6 (Homo sapiens, UniProt P10635); conditions: bti-tn-5b1-4; note: in other assays of this panel Not Active means under 50% inhibition at 10 µM
# Cytochrome P450 2D6, sequence (P10635 whole entry): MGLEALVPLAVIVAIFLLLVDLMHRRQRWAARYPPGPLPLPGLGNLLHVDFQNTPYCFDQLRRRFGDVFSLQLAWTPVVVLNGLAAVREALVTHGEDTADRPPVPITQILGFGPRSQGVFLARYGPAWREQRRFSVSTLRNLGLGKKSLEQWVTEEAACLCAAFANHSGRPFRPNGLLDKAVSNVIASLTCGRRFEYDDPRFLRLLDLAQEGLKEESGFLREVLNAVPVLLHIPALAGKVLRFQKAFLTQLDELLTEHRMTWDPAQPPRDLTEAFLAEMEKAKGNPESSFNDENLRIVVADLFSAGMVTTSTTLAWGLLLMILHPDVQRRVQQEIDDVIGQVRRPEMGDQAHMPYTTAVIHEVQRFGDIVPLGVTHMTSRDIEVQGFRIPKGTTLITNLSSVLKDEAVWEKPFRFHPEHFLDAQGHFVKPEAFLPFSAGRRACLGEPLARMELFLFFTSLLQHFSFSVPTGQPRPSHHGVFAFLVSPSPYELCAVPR
# 5-hydroxytryptamine receptor 2B, sequence (P41595 whole entry): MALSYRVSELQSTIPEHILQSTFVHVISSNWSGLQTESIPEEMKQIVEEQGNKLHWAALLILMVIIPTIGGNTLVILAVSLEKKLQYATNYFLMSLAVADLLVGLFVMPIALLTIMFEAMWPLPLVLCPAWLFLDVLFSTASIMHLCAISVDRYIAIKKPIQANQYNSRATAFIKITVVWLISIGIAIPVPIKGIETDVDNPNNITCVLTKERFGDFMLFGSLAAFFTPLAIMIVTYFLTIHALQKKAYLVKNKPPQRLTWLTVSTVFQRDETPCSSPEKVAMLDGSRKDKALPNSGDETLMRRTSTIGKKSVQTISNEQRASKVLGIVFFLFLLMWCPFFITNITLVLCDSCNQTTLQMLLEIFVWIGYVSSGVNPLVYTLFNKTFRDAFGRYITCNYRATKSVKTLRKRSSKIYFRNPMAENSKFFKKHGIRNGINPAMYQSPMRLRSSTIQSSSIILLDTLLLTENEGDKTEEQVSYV
# C-C chemokine receptor type 2, sequence (P41597 whole entry): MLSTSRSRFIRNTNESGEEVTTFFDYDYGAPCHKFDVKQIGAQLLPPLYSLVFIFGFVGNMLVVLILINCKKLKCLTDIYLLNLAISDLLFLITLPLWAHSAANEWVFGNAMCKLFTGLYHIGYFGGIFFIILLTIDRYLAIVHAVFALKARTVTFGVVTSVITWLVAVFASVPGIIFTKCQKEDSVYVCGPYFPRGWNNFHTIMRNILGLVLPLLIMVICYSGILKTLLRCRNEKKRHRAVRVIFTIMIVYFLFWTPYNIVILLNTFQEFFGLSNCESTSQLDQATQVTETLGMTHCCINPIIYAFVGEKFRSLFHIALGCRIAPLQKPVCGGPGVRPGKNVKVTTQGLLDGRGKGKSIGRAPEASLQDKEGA
# Mu-type opioid receptor, sequence (P35372 whole entry): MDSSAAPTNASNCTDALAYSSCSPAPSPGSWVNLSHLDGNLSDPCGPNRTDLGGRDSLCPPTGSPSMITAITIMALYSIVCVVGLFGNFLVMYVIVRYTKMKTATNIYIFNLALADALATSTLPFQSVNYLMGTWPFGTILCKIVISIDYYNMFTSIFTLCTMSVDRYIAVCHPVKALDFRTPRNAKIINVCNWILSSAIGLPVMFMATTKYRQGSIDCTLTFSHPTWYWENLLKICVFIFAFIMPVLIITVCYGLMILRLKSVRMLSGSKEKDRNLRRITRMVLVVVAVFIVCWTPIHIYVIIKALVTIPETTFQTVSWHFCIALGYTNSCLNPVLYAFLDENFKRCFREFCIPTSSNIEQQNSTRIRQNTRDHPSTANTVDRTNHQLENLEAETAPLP
# D(1A) dopamine receptor, sequence (P21728 whole entry): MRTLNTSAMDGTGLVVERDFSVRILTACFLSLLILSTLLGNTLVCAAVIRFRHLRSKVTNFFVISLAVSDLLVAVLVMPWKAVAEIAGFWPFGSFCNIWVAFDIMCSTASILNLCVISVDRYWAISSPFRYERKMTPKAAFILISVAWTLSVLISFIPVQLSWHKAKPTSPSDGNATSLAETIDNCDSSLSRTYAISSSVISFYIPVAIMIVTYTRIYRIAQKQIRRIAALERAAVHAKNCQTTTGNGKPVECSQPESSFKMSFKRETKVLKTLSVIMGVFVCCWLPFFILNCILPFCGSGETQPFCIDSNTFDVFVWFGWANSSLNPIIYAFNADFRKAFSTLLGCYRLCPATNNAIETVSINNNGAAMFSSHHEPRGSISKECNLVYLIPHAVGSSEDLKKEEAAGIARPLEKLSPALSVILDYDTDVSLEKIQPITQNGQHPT
Molecule,IC50 ([1]; cho-k1),IC50 ([2]; cho-k1),IC50 [3],IC50 ([4]; cho-k1),IC50 [5],Ki [5],IC50 [6],IC50 [7],Ki [7],IC50 ([1]; read-out: IC50) [µM],Ki ([1]; read-out: Ki) [µM],IC50 ([2]; read-out: IC50) [µM],Ki ([2]; read-out: Ki) [nM],Ki ([1]; cho-k1),Ki ([2]; cho-k1),Ki [3],Ki ([4]; cho-k1),Ki [6],IC50 ([4]; read-out: IC50) [nM],Ki ([4]; read-out: Ki) [nM]
COc1ccccc1C(=O)N1CCC(Cc2ccccc2)CC1,Not Active,Not Active,Not Active,Not Active,Not Active,Not Active,Not Active,Not Active,Not Active,–,–,–,–,–,–,–,–,–,–,–
Cc1ccccc1C(=O)N1CCC(Cc2ccccc2)CC1,–,Not Active,Not Active,Not Active,Not Active,Not Active,Not Active,Not Active,Not Active,1.86,1.18,–,–,–,–,–,–,–,–,–
O=C1CC[C@H](N2C(=O)c3ccccc3C2=O)C(=O)N1,Not Active,Not Active,Not Active,Not Active,Not Active,Not Active,Not Active,Not Active,Not Active,–,–,–,–,–,–,–,–,–,–,–
N=C(Nc1ccccc1)Nc1ccccc1,Not Active,Not Active,Not Active,Not Active,Not Active,Not Active,Not Active,–,–,–,–,–,–,–,–,–,–,–,–,–
"C[C@@H](O)[C@H](CO)NC(=O)[C@@H]1CSSC[C@H](NC(=O)[C@H](N)Cc2ccccc2)C(=O)N[C@@H](Cc2ccccc2)C(=O)N[C@H](Cc2c[nH]c3ccccc23)C(=O)N[C@@H](CCCCN)C(=O)N[C@@H]([C@@H](C)O)C(=O)N1 (H-[dF]CF[dW]KTC-{Threoninol(2S,3R)}; disulfide 2-7)",Not Active,Not Active,Not Active,Not Active,Not Active,Not Active,Not Active,Not Active,Not Active,–,–,–,–,–,–,–,–,–,–,–
S=C=Nc1cccc2ccccc12 [1-NAPHTHYLISOTHIOCYANATE],–,–,–,–,Not Active,Not Active,Not Active,Not Active,Not Active,25.2,16,6.7,2590,–,–,–,–,–,–,–
C[C@](O)(CS(=O)(=O)c1ccc(F)cc1)C(=O)Nc1ccc(C#N)c(C(F)(F)F)c1 [(R)-BICALUTAMIDE],Not Active,Not Active,Not Active,Not Active,Not Active,Not Active,Not Active,Not Active,Not Active,–,–,–,–,–,–,–,–,–,–,–
CCCC(=O)Nc1ccc(OCC(O)CNC(C)C)c(C(C)=O)c1 (centres undefined) [ACEBUTOLOL],Not Active,Not Active,Not Active,Not Active,Not Active,Not Active,Not Active,Not Active,Not Active,–,–,–,–,–,–,–,–,–,–,–
CC(=O)Nc1ccc(O)cc1 [ACETAMINOPHEN],Not Active,Not Active,Not Active,Not Active,Not Active,Not Active,Not Active,Not Active,Not Active,–,–,–,–,–,–,–,–,–,–,–
COc1cc2c(c3oc(=O)c4c(c13)CCC4=O)[C@@H]1C=CO[C@@H]1O2 [AFLATOXIN],Not Active,Not Active,Not Active,Not Active,Not Active,Not Active,Not Active,Not Active,Not Active,–,–,–,–,Not Active,Not Active,Not Active,Not Active,Not Active,–,–
N=C(N)NC(=O)c1nc(Cl)c(N)nc1N [AMILORIDE],Not Active,Not Active,Not Active,Not Active,Not Active,Not Active,Not Active,Not Active,Not Active,–,–,–,–,–,–,–,–,–,–,–
Cc1cc(=O)n(-c2ccccc2)n1C [ANTIPYRINE],Not Active,Not Active,Not Active,Not Active,Not Active,Not Active,Not Active,Not Active,Not Active,–,–,–,–,–,–,–,–,–,–,–
CN1C(=O)COc2c(C(=O)NC3CN4CCC3CC4)cc(Cl)cc21 (centres undefined) [AZASETRON],Not Active,Not Active,Not Active,Not Active,Not Active,Not Active,Not Active,Not Active,Not Active,–,–,–,–,–,–,–,–,–,–,–
CCCCN1CCCCC1C(=O)Nc1c(C)cccc1C.Cl (centres undefined) [BUPIVACAINE HYDROCHLORIDE],Not Active,Not Active,Not Active,Not Active,Not Active,Not Active,Not Active,–,–,–,–,–,–,–,–,–,–,–,–,–
C[C@@]12C(=O)OC(=O)[C@]1(C)[C@H]1CC[C@@H]2O1 [CANTHARIDIN],Not Active,Not Active,Not Active,–,Not Active,Not Active,Not Active,Not Active,Not Active,–,–,–,–,–,–,–,–,–,–,–
O=NN(CCCl)C(=O)NCCCl [CARMUSTINE],Not Active,Not Active,Not Active,Not Active,Not Active,Not Active,Not Active,–,–,–,–,–,–,–,–,–,–,–,–,–
CC1=C(C(=O)O)N2C(=O)[C@@H](NC(=O)[C@H](N)c3ccccc3)[C@H]2SC1 [CEPHALEXIN ANHYDROUS],Not Active,Not Active,Not Active,Not Active,Not Active,Not Active,Not Active,–,–,–,–,–,–,–,–,–,–,–,–,–
O=C(N[C@H](CO)[C@H](O)c1ccc([N+](=O)[O-])cc1)C(Cl)Cl [CHLORAMPHENICOL],Not Active,Not Active,Not Active,Not Active,Not Active,Not Active,Not Active,–,–,–,–,–,–,–,–,–,–,–,–,–
CCOC(=O)C(C)(C)Oc1ccc(Cl)cc1 [CLOFIBRATE],Not Active,Not Active,Not Active,Not Active,Not Active,Not Active,Not Active,–,–,–,–,–,–,–,–,–,–,–,–,–
C[C@@H]1C[C@@H]([C@H](O)CC2CC(=O)NC(=O)C2)C(=O)[C@@H](C)C1 [CYCLOHEXIMIDE],Not Active,Not Active,Not Active,–,Not Active,Not Active,Not Active,–,–,–,–,–,–,–,–,–,–,–,–,–
C/C=C/C[C@@H](C)[C@@H](O)[C@H]1C(=O)N[C@@H](CC)C(=O)N(C)CC(=O)N(C)[C@@H](CC(C)C)C(=O)N[C@@H](C(C)C)C(=O)N(C)[C@@H](CC(C)C)C(=O)N[C@@H](C)C(=O)N[C@H](C)C(=O)N(C)[C@@H](CC(C)C)C(=O)N(C)[C@@H](CC(C)C)C(=O)N(C)[C@@H](C(C)C)C(=O)N1C [CYCLOSPORINE],Not Active,Not Active,Not Active,Not Active,Not Active,Not Active,Not Active,–,–,–,–,–,–,–,–,–,–,–,–,–
COP(=O)(OC)OC=C(Cl)Cl [DICHLORVOS],Not Active,Not Active,Not Active,–,Not Active,Not Active,Not Active,Not Active,Not Active,–,–,–,–,–,–,–,–,–,–,–
CCN1CC(CCN2CCOCC2)C(c2ccccc2)(c2ccccc2)C1=O (centres undefined) [DOXAPRAM],Not Active,Not Active,Not Active,Not Active,Not Active,Not Active,Not Active,–,–,–,–,–,–,–,–,–,–,–,–,–
CN(C)c1ccc(C(=C2C=CC(=[N+](C)C)C=C2)c2ccc(N(C)C)cc2)cc1.[Cl-] [GENTIAN VIOLET],Not Active,Not Active,–,–,Not Active,Not Active,Not Active,–,–,–,–,–,–,–,–,–,–,–,2150,871
NC(=O)NO [HYDROXYUREA],Not Active,Not Active,Not Active,Not Active,Not Active,Not Active,Not Active,–,–,–,–,–,–,–,–,–,–,–,–,–
COc1ccc2cc([C@H](C)C(=O)O)ccc2c1 [NAPROXEN],Not Active,Not Active,Not Active,Not Active,–,–,Not Active,–,–,–,–,–,–,–,–,–,–,–,–,–
COC(=O)C1=C(C)NC(C)=C(C(=O)OCC(C)C)C1c1ccccc1[N+](=O)[O-] (centres undefined) [NISOLDIPINE],Not Active,Not Active,Not Active,Not Active,Not Active,Not Active,Not Active,–,–,–,–,–,–,–,–,–,–,–,–,–
CCn1cc(C(=O)O)c(=O)c2cc(F)c(N3CCN(C)CC3)cc21 [PEFLOXACIN],Not Active,Not Active,Not Active,Not Active,Not Active,Not Active,Not Active,–,–,–,–,–,–,–,–,–,–,–,–,–
OC(CCN1CCCCC1)(c1ccccc1)C1CCCCC1 (centres undefined) [TRIHEXYPHENIDYL],Not Active,Not Active,Not Active,Not Active,Not Active,Not Active,Not Active,–,–,–,–,–,–,–,–,–,–,–,–,–
CADMIUM DICHLORIDE,Not Active,Not Active,Not Active,–,Not Active,Not Active,Not Active,Not Active,Not Active,–,–,–,–,Not Active,Not Active,Not Active,–,Not Active,–,–
